Values of other authors as cited in US20030195350A1, “Individualization of therapy with antiviral agents” (priority 2001, published 2003).

Details: in vivo; cited from earlier work

For `Cc1cn([C@H]2C[C@H](N=[N+]=[N-])[C@@H](CO)O2)c(=O)[nH]c1=O` [ZDV, zidovudine], the “Adverse event: Abdominal Pain” value is listed as 5.9%, the “Adverse event: Anorexia” value is listed as 4.2% and the “Adverse event: Anxiety” value is listed as 0.8%. For the same molecule, the “Adverse event: Arthralgia” value was 0.0%, the “Adverse event: Asthenia” value was 11.8% and the “Adverse event: Circumoral Paresthesia” value was 0.0%. The “Adverse event: Confusion” value was 0.0%, the “Adverse event: Constipation” value was 0.8% and the “Adverse event: Depression” value was 2.5%. The “Adverse event: Diarrhea” value was 2.5%, the “Adverse event: Dizziness” value was 3.4% and the “Adverse event: Dyspepsia” value was 1.7%. For the same molecule, the “Adverse event: Fecal Incontinence” value was 0.0%, the “Adverse event: Fever” value was 1.7% and the “Adverse event: Flatulence” value was 1.7%. The “Adverse event: Headache” value was 6.7%, the “Adverse event: Insomnia” value was 0.8% and the “Adverse event: Local Throat Irritation” value was 0.8%. The “Adverse event: Malaise” value was 3.4%, the “Adverse event: Myalgia” value was 0.8% and the “Adverse event: Nausea” value was 26.1%. The “Adverse event: Nocturia” value was 0.0%, the “Adverse event: Pain (unspecified)” value was 0.8% and the “Adverse event: Paresthesia” value was 0.0%. For the same molecule, the “Adverse event: Peripheral Paresthesia” value was 0.8%, the “Adverse event: Pharyngitis” value was 0.0% and the “Adverse event: Rash” value was 0.8%. The “Adverse event: Somnolence” value was 0.0%, the “Adverse event: Sweating” value was 1.7% and the “Adverse event: Syncope” value was 0.8%. For the same molecule, the “Adverse event: Taste Perversion” value was 8.4%, the “Adverse event: Thinking Abnormal” value was 0.8% and the “Adverse event: Vasodilation” value was 0.8%. The “Adverse event: Vomiting” value was 12.6% and the “Adverse event: Weight Loss” value was 0.0%.
